{
  "source": "patent US7576222B2",
  "about": "“Alkynyl-containing tryptophan derivative inhibitors of TACE/matrix metalloproteinase” (priority 2004, dated 2009)",
  "note": "pIC50: −log10 of the molar value.",
  "data": [
    {"target": "T1, catalytic domain of the recombinant TACE protein (Homo sapiens, UniProt P78536)", "T1 construct": "The catalytic domain of the recombinant TACE protein was expressed and purified; made in house", "T1 sequence (P78536 223-474 limits assumed)": "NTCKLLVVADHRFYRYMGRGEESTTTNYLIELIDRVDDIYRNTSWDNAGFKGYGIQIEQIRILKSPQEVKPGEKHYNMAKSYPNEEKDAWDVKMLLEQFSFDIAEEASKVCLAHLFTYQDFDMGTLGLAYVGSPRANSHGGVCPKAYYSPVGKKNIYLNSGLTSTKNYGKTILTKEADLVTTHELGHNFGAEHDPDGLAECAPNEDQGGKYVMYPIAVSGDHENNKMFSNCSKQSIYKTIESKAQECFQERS", "assay": "TACE FRET assay using TACE cat", "type": "biochemical", "conditions": "not given", "description": "(§1) TACE FRET Assay Using TACE Cat\n(§2) “K” is the IC50. Generally, “n” and “B” are floated, noting that n (Hill slope) should be close to 1 and B (background offset) to 0.\n(§3) Pro-TNF-α substrate peptide Abz-[…]-Dpa (AnaSpec, San Jose, Calif., WARC-1) was prepared as a 2 mM stock solution in the TACE assay buffer (50 mM Tris-HCl, pH 7.4, 25 mM NaCl, 4% Glycerol, 0.005% Brij 35). The catalytic domain of the recombinant TACE protein was expressed and purified. The TACE protein (1 ug/ml) was pretreated with the inhibitors at various concentrations for 10 min. at room temperature. The reaction was initiated by the addition of the substrate peptide. […] The initial rate (slope) of the reaction was determined using a fluorescence plate reader (Molecular Devices, Spectra Max Gemini XS).", "values": [
      {"smiles": "CC#CCOc1ccc(S(=O)(=O)N[C@@H](Cc2c(C)n(Cc3ccccc3)c3ccc(OC)cc23)C(=O)O)cc1", "note": "[Example 185, 1-benzyl-N-{[4-(but-2-ynyloxy)phenyl]sulfonyl}-5-methoxy-2-methyltryptophan]", "pIC50": 6.70},
      {"smiles": "CC#CCOc1ccc(S(=O)(=O)N[C@H](Cc2cn(Cc3ccc(C#N)cc3)c3ccccc23)C(=O)O)cc1", "note": "[Example 45, N-{[4-(but-2-ynyloxy)phenyl]sulfonyl}-1-(4-cyanobenzyl)-D-tryptophan]", "pIC50": 5.39},
      {"smiles": "CC#CCOc1ccc(S(=O)(=O)N[C@@H](Cc2c(C)n(Cc3ccc(Cl)cc3)c3ccc(OC)cc23)C(=O)O)cc1", "note": "[Example 201, N-{[4-(but-2-ynyloxy)phenyl]sulfonyl}-1-(4-chlorobenzyl)-5-methoxy-2-methyltryptophan]", "pIC50": 6.54},
      {"smiles": "CC#CCOc1ccc(S(=O)(=O)N[C@@H](Cc2c[nH]c3ccc(F)cc23)C(=O)O)cc1", "note": "[Example 3, N-{[4-(but-2-ynyloxy)phenyl]sulfonyl}-5-fluorotryptophan]", "pIC50": 5.81}
    ]},
    {"target": "T1, catalytic domain of the recombinant TACE protein", "assay": "TACE FRET assay using TACE cat", "type": "biochemical", "conditions": "TACE FRET assay, catalytic domain of recombinant TACE; read-out: TACE IC50", "description": "as §1, §2, §3", "values": [
      {"smiles": "CC#CCOc1ccc(S(=O)(=O)N[C@H](Cc2c[nH]c3ccccc23)C(=O)O)cc1", "note": "[Example 1, N-{[4-(but-2-ynyloxy)phenyl]sulfonyl}-D-tryptophan]", "pIC50": 5.60},
      {"smiles": "CC#CCOc1ccc(S(=O)(=O)N[C@H](Cc2cn(Cc3cc(OC)cc(OC)c3)c3ccccc23)C(=O)O)cc1", "note": "[Example 36, N-{[4-(but-2-ynyloxy)phenyl]sulfonyl}-1-(3,5-dimethoxybenzyl)-D-tryptophan]", "pIC50": 6.01},
      {"smiles": "CC#CCOc1ccc(S(=O)(=O)N[C@H](Cc2cn(Cc3ccccc3)c3ccccc23)C(=O)O)cc1", "note": "[Example 25, 1-benzyl-N-{[4-(but-2-ynyloxy)phenyl]sulfonyl}-D-tryptophan]", "pIC50": 5.67}
    ]},
    {"target": "T1, catalytic domain of the recombinant TACE protein", "assay": "TACE FRET assay using TACE cat", "type": "biochemical", "conditions": "read-out: TACE Inhibition (%)", "description": "as §1, §2, §3", "units": {"inhibition at 1 µM": "%"}, "values": [
      {"smiles": "CC#CCOc1ccc(S(=O)(=O)N[C@@H](Cc2c(C)n(Cc3ccc(OC(F)(F)F)cc3)c3ccc(OC)cc23)C(=O)O)cc1", "note": "[Example 196, N-{[4-(but-2-ynyloxy)phenyl]sulfonyl}-5-methoxy-2-methyl-1-[4-(trifluoromethoxy)benzyl]tryptophan]", "inhibition at 1 µM": 72.8},
      {"smiles": "CC#CCOc1ccc(S(=O)(=O)N[C@@H](Cc2cn(Cc3ccc(OC)cc3)c3ccc(C#N)cc23)C(=O)O)cc1", "note": "[Example 139, N-{[4-(but-2-ynyloxy)phenyl]sulfonyl}-5-cyano-1-(4-methoxybenzyl)tryptophan]", "inhibition at 1 µM": 25.1},
      {"smiles": "CC#CCOc1ccc(S(=O)(=O)N[C@@H](Cc2c(C)n(Cc3ccccc3C#N)c3ccc(OC)cc23)C(=O)O)cc1", "note": "[Example 203, N-{[4-(but-2-ynyloxy)phenyl]sulfonyl}-1-(2-cyanobenzyl)-5-methoxy-2-methyltryptophan]", "inhibition at 1 µM": 56.8},
      {"smiles": "CC#CCOc1ccc(S(=O)(=O)N[C@@H](Cc2cn(Cc3ccc(C(C)C)cc3)c3ccc(C#N)cc23)C(=O)O)cc1", "note": "[Example 142, N-{[4-(but-2-ynyloxy)phenyl]sulfonyl}-5-cyano-1-(4-isopropylbenzyl)tryptophan]", "inhibition at 1 µM": 8.34},
      {"smiles": "CC#CCOc1ccc(S(=O)(=O)N[C@@H](Cc2c(C)n(Cc3ccc4c(c3)OCO4)c3ccc(Cl)cc23)C(=O)O)cc1", "note": "[Example 100, 1-(1,3-benzodioxol-5-ylmethyl)-N-{[4-(but-2-ynyloxy)phenyl]sulfonyl}-5-chloro-2-methyltryptophan]", "inhibition at 1 µM": 55.6},
      {"smiles": "CC#CCOc1ccc(S(=O)(=O)N[C@@H](Cc2cn(Cc3cccc(C)c3)c3ccc(Cl)cc23)C(=O)O)cc1", "note": "[Example 73, N-{[4-(but-2-ynyloxy)phenyl]sulfonyl}-5-chloro-1-(3-methylbenzyl)tryptophan]", "inhibition at 1 µM": 28},
      {"smiles": "CC#CCOc1ccc(S(=O)(=O)N[C@@H](Cc2c(C)n(Cc3cc(F)cc(F)c3)c3ccccc23)C(=O)O)cc1", "note": "[Example 155, N-{[4-(but-2-ynyloxy)phenyl]sulfonyl}-1-(3,5-difluorobenzyl)-2-methyltryptophan]", "inhibition at 1 µM": 54.3},
      {"smiles": "CC#CCOc1ccc(S(=O)(=O)N[C@@H](Cc2c(C)n(Cc3ccc(C(F)(F)F)cc3)c3ccc(Cl)cc23)C(=O)O)cc1", "note": "[Example 93, N-{[4-(but-2-ynyloxy)phenyl]sulfonyl}-5-chloro-2-methyl-1-[4-(trifluoromethyl)benzyl]tryptophan]", "inhibition at 1 µM": 53.8},
      {"smiles": "CC#CCOc1ccc(S(=O)(=O)N[C@@H](Cc2c(C)n(CC3CCCCC3)c3ccc(OC)cc23)C(=O)O)cc1", "note": "[Example 213, N-{[4-(but-2-ynyloxy)phenyl]sulfonyl}-1-(cyclohexylmethyl)-5-methoxy-2-methyltryptophan]", "inhibition at 1 µM": 60.5},
      {"smiles": "CC#CCOc1ccc(S(=O)(=O)N[C@@H](Cc2c(C)n(C)c3ccc(OC)cc23)C(=O)O)cc1", "note": "[Example 208, N-{[4-(but-2-ynyloxy)phenyl]sulfonyl}-5-methoxy-1,2-dimethyltryptophan]", "inhibition at 1 µM": 61.8},
      {"smiles": "CC#CCOc1ccc(S(=O)(=O)N[C@@H](Cc2c(C)n(Cc3ccc(F)cc3)c3ccccc23)C(=O)O)cc1", "note": "[Example 154, N-{[4-(but-2-ynyloxy)phenyl]sulfonyl}-1-(4-fluorobenzyl)-2-methyltryptophan]", "inhibition at 1 µM": 52.7},
      {"smiles": "CC#CCOc1ccc(S(=O)(=O)N[C@@H](Cc2cn(Cc3ccccc3F)c3ccc(Cl)cc23)C(=O)O)cc1", "note": "[Example 79, N-{[4-(but-2-ynyloxy)phenyl]sulfonyl}-5-chloro-1-(2-fluorobenzyl)tryptophan]", "inhibition at 1 µM": 8.27},
      {"smiles": "CC#CCOc1ccc(S(=O)(=O)N[C@@H](Cc2cn(CC(C)C)c3ccc(C(=O)O)cc23)C(=O)O)cc1", "note": "[Example 129, N-{[4-(but-2-ynyloxy)phenyl]sulfonyl}-5-carboxy-1-isobutyltryptophan]", "inhibition at 1 µM": -4.96},
      {"smiles": "CC#CCOc1ccc(S(=O)(=O)N[C@@H](Cc2c(C)n(CC(C)C)c3ccc(OC)cc23)C(=O)O)cc1", "note": "[Example 210, N-{[4-(but-2-ynyloxy)phenyl]sulfonyl}-1-isobutyl-5-methoxy-2-methyltryptophan]", "inhibition at 1 µM": 66.6},
      {"smiles": "CC#CCOc1ccc(S(=O)(=O)N[C@@H](Cc2cn(CC)c3ccc(C(=O)O)cc23)C(=O)O)cc1", "note": "[Example 128, N-{[4-(but-2-ynyloxy)phenyl]sulfonyl}-5-carboxy-1-ethyltryptophan]", "inhibition at 1 µM": -0.6},
      {"smiles": "CC#CCOc1ccc(S(=O)(=O)N[C@@H](Cc2cn(Cc3cccnc3)c3ccc(C(=O)O)cc23)C(=O)O)cc1", "note": "[Example 125, N-{[4-(but-2-ynyloxy)phenyl]sulfonyl}-5-carboxy-1-(pyridin-3-ylmethyl)tryptophan]", "inhibition at 1 µM": 6.23},
      {"smiles": "CC#CCOc1ccc(S(=O)(=O)N[C@@H](Cc2cn(Cc3cc(F)cc(F)c3)c3ccc(C(=O)O)cc23)C(=O)O)cc1", "note": "[Example 118, N-{[4-(but-2-ynyloxy)phenyl]sulfonyl}-5-carboxy-1-(3,5-difluorobenzyl)tryptophan]", "inhibition at 1 µM": 5.98},
      {"smiles": "CC#CCOc1ccc(S(=O)(=O)N[C@@H](Cc2cn(Cc3ccccc3C)c3ccc(OC)cc23)C(=O)O)cc1", "note": "[Example 49, N-{[4-(but-2-ynyloxy)phenyl]sulfonyl}-5-methoxy-1-(2-methylbenzyl)tryptophan]", "inhibition at 1 µM": 38.9},
      {"smiles": "CC#CCOc1ccc(S(=O)(=O)N[C@@H](Cc2c(C)n(Cc3cccc(OC)c3)c3ccc(Cl)cc23)C(=O)O)cc1", "note": "[Example 90, N-{[4-(but-2-ynyloxy)phenyl]sulfonyl}-5-chloro-1-(3-methoxybenzyl)-2-methyltryptophan]", "inhibition at 1 µM": 65.2},
      {"smiles": "CC#CCOc1ccc(S(=O)(=O)N[C@@H](Cc2cn(Cc3ccccc3C#N)c3ccc(C(=O)O)cc23)C(=O)O)cc1", "note": "[Example 121, N-{[4-(but-2-ynyloxy)phenyl]sulfonyl}-5-carboxy-1-(2-cyanobenzyl)tryptophan]", "inhibition at 1 µM": 14.8},
      {"smiles": "CC#CCOc1ccc(S(=O)(=O)N[C@@H](Cc2c(C)n(Cc3ccc(C(C)C)cc3)c3ccc(Cl)cc23)C(=O)O)cc1", "note": "[Example 97, N-{[4-(but-2-ynyloxy)phenyl]sulfonyl}-5-chloro-1-(4-isopropylbenzyl)-2-methyltryptophan]", "inhibition at 1 µM": 21.9},
      {"smiles": "CC#CCOc1ccc(S(=O)(=O)N[C@@H](Cc2c(C)n(Cc3ccc(C)cc3)c3ccc(Cl)cc23)C(=O)O)cc1", "note": "[Example 92, N-{[4-(but-2-ynyloxy)phenyl]sulfonyl}-5-chloro-2-methyl-1-(4-methylbenzyl)tryptophan]", "inhibition at 1 µM": 64},
      {"smiles": "CC#CCOc1ccc(S(=O)(=O)N[C@@H](Cc2cn(CC(C)C)c3ccc(C#N)cc23)C(=O)O)cc1", "note": "[Example 143, N-{[4-(but-2-ynyloxy)phenyl]sulfonyl}-5-cyano-1-isobutyltryptophan]", "inhibition at 1 µM": 32.4},
      {"smiles": "CC#CCOc1ccc(S(=O)(=O)N[C@@H](Cc2c(C)n(Cc3ccccc3OC)c3ccc(OC)cc23)C(=O)O)cc1", "note": "[Example 189, N-{[4-(but-2-ynyloxy)phenyl]sulfonyl}-5-methoxy-1-(2-methoxybenzyl)-2-methyltryptophan]", "inhibition at 1 µM": 75.6},
      {"smiles": "CC#CCOc1ccc(S(=O)(=O)N[C@@H](Cc2cn(Cc3ccc(F)cc3)c3ccc(C(=O)O)cc23)C(=O)O)cc1", "note": "[Example 117, N-{[4-(but-2-ynyloxy)phenyl]sulfonyl}-5-carboxy-1-(4-fluorobenzyl)tryptophan]", "inhibition at 1 µM": 10.9},
      {"smiles": "CC#CCOc1ccc(S(=O)(=O)N[C@@H](Cc2cn(C)c3ccc(C(=O)O)cc23)C(=O)O)cc1", "note": "[Example 127, N-{[4-(but-2-ynyloxy)phenyl]sulfonyl}-5-carboxy-1-methyltryptophan]", "inhibition at 1 µM": -3.22},
      {"smiles": "CC#CCOc1ccc(S(=O)(=O)N[C@@H](Cc2c(C)[nH]c3ccccc23)C(=O)O)cc1", "note": "[Example 134, N-{[4-(but-2-ynyloxy)phenyl]sulfonyl}-2-methyltryptophan]", "inhibition at 1 µM": 64.2}
    ]}
  ]
}
